Source: patent publication US9205064B2, “Methods for the diagnosis of oncological disorders using epimetabolic shifters, multidimensional intracellular molecules, or environmental influencers” (Berg LLC, priority 2009, dated 2015)

Key:
[1] = tested on: MCF-7 breast cancer cells; test: SeaHorse XF analyzer OCR and ECAR; type: cell-based; details: absence and presence of stressors
From the text: (§1) Environmental influencers (e.g., MIMs or Epi-shifters) may also be identified by changes in cellular energetics. One example of the measurement of cellular energetics are the real-time measures of the consumption of molecular oxygen and/or the change in pH of the media of a cell culture. For example, the ability of a potential epi-shifter to modulate the metabolic state of a cell may be analyzed using, for example, the XF24 Analyzer (Seahorse, Inc.). This technology allows for real time detection of oxygen and pH changes in a monolayer of cells in order to evaluate the bioenergetics of a cell microenvironment. The XF24 Analyzer measures and compares the rates of oxygen consumption (OCR), which is a measure of aerobic metabolism, and extracellular acidification (ECAR), which is a measure of glycolysis, both key indicators of cellular energetics.
(§2) (SeaHorse Biosciences Inc, North Billerica, Mass.).
In contrast, cancer cells (e.g., MCF-7, PaCa-2) are inherently primed to culture at higher levels of glucose compared to normal cells due to their glycolytic phenotype for maintenance in culture.

[2] = rats, oral; cited from earlier work
HASMC cells = test: SeaHorse XF analyzer OCR and ECAR; type: cell-based, human; details: hyperglycemic, hypoxic conditions
From the text: as §1, §2
In this experiment, the OCR and extracellular acidification rate (ECAR) in normal cells lines were obtained in the presence and absence of CoQ10 to determine baseline values. It was observed that in its native nutrient environment, the basal OCR rates in normal cells lines are different, and are usually a function of the physiological roles of the cells in the body. […]
In Table 54 the measured baseline ECAR values (mpH/min) in HASMC were higher compared to that of HDFa. […]

SKMEL-28 mitochondria = test: 2-D gel electrophoresis of mitochondria enriched samples; type: cell-based
[3] = tested on: Lactate Dehydrogenase (LDH); test: Western blot of lactate dehydrogenase levels; type: cell-based, human; details: cancer cells
Protocol: The samples were processed and run on a 4-12% Bis-Tris Novex NuPAGE gel as described above. The gels were run, transferred and stained essentially as described above.
After transfer each blot was dried for 15-20 minutes, activated with methanol for 5 seconds, washed with water for 5 minutes, and TBST for 15 minutes. The blots were blocked for 1 hour with 5% blocking reagent in TBS-T at room temperature and then washed 3 times with TBS-T (1×-15′; 2×5′ each) and probed with the primary antibody for Lactate Dehydrogenase (abcam ab2101; polyclonal) in 5% BSA (at 1:1000 dilutions) by incubation overnight at 4 deg C. with shaking. After the overnight incubation with primary antibody for Lactate Dehydrogenase, the blots were washed 3 times with TBS-T (1×-15′; 2×5′ each) and probed with the secondary antibody (rabbit antigoat; 1:10,000 dilution) for 1 h at room temperature. After 1 h of incubation with secondary antibodies, the blots were washed 3 times with TBS-T (1×-15′; 2×5′ each) and then incubated with ECF reagent for 5 mins and then each blot scanned with 5100 Fuji Laser scanner at 25 uM resolution, 16 bit, green laser, at 400V and at 500 V. […]
The levels of LDH and PDH were determined by probing the blots successively with primary antibodies for LDH and PDH, essentially as described above. […]

COC1=C(OC)C(=O)C(C/C=C(\C)CC/C=C(\C)CC/C=C(\C)CC/C=C(\C)CC/C=C(\C)CC/C=C(\C)CC/C=C(\C)CC/C=C(\C)CC/C=C(\C)CCC=C(C)C)=C(C)C1=O [Q10, Coenzyme Q10]
OCR values [1]: consistent reduction | fraction of orally-administered CoQ10 absorbed [2]: 2-3% | ECAR rates (HASMC cells): downward trend | PDIA3 (ER60 protein), spot 110: Response (SKMEL-28 mitochondria; 100 μM Q10, 19 and 48 hr): Up at 19 and 48 hr | Unknown, spot 131: Response (SKMEL-28 mitochondria; 100 μM Q10, 19 and 48 hr): drops more for 19 | CCDC58, spot 75: Response (SKMEL-28 mitochondria; 100 μM Q10, 48 hr): Up at 48 hr | Unknown protein, spot 11: Response (SKMEL-28 mitochondria; 100 μM Q10, after 6 hr): drop to low levels | Beta-Actin, spot 202: Response (SKMEL-28 mitochondria; 100 μM Q10, only at 19 hr): Up only at 19 hr | KRT10 (Keratin 10), spot 185: Response (SKMEL-28 mitochondria; 100 μM Q10, only at 19 hr): Up only at 19 hr | MLEC (Malectin), spot 246: Response (SKMEL-28 mitochondria; 100 μM Q10, only at 19 hr): Up only at 19 hr | Lactate Dehydrogenase (LDH) expression [3]: reduced
